# Columns and labels:
# Staphylococcus aureus = assay: Antimicrobial testing, time-kill log reduction against S. aureus; type: cell-based; conditions: for Concentration (CFU/mL): 5 ml of 1% Compound 3 solution + 20 ml PBS pH 7.2; for Log Reduction: log inoculum verification minus sample log recovery
# Description: (§1) The preferred embodiment was tested for antimicrobial activity using the following procedure.
# (§2) A 1% solution of Compound 3 was prepared in DPBS (Dulbecco's phosphate buffered saline). A 25 ml mixture of the 1% Compound 3 and PBS (phosphate buffered saline, pH 7.2 was prepared by mixing 5 ml of the 1% Compound 3 solution and 20 ml of the PBS.
# (§3) A 10 ml aliquot of the above mixture was placed into each of two sterile test tubes. One test tube was inoculated with 0.1 ml of S. aureus and the other with 0.1 ml of P. aeruginosa, such that there was a final concentration of 10^6 colony-forming units (CFU)/0.1 mls.
# (§4) A various time points, 1.0 ml of each inoculated test sample were removed, diluted 10× with 0.45% saline and plated on trypticase soy agar (TSA) plates.
# (§5) Samples of PBS was treated in the same manner. At time points 5 mins and 60 mins, two 1 ml samples were taken and diluted 1 × and one spiked with a 0.1 ml aliquot of the S. aureus and the other spiked with 0.1 ml of the P aeruginosa.
# (§6) The plates were incubated at 30-35° C. for not less than 24 hours. Concentration of CFU in the samples taken at each time point were enumerated by standard methods. The log reduction was calculated for each time period and organism. The log reduction was calculated using the formula: Log reduction=Log inoculums verification−sample log recovery.
# Pseudomonas aeruginosa = assay: Antimicrobial testing, time-kill log reduction against P. aeruginosa; type: cell-based; conditions: for Concentration (CFU/mL): 5 ml of 1% Compound 3 solution + 20 ml PBS pH 7.2; for Log Reduction: log inoculum verification minus sample log recovery
# Description: as §1, §2, §3, §4, §5, §6
# Listeria Monocytogenes = conditions: in conjunction with certain organic acids; J. Applied Bacteriol. 1996; cited from earlier work
# [1] = test system: Adenovirus Infection of Bladder Epithelium; conditions: pretreatment agent; Ramesh et al., Molecular Therapy 2004; cited from earlier work
# [2] = antimicrobial if greater than 5 log reduction
Compound,Concentration (CFU/mL) (Staphylococcus aureus; 5 minutes),Log Reduction (Staphylococcus aureus; 5 minutes),Concentration (CFU/mL) (Staphylococcus aureus; 15 minutes),Log Reduction (Staphylococcus aureus; 15 minutes),Concentration (CFU/mL) (Staphylococcus aureus; 30 minutes),Log Reduction (Staphylococcus aureus; 30 minutes),Concentration (CFU/mL) (Staphylococcus aureus; 60 minutes),Log Reduction (Staphylococcus aureus; 60 minutes),antimicrobial effect (Staphylococcus aureus; [2]),Concentration (CFU/mL) (Pseudomonas aeruginosa; 5 minutes),Log Reduction (Pseudomonas aeruginosa; 5 minutes),Concentration (CFU/mL) (Pseudomonas aeruginosa; 15 minutes),Log Reduction (Pseudomonas aeruginosa; 15 minutes),Concentration (CFU/mL) (Pseudomonas aeruginosa; 30 minutes),Log Reduction (Pseudomonas aeruginosa; 30 minutes),Concentration (CFU/mL) (Pseudomonas aeruginosa; 60 minutes),antimicrobial effect (Pseudomonas aeruginosa; [2]),anti-microbial against Listeria Monocytogenes (Listeria Monocytogenes),increasing the effectiveness of gene and oncolytic virus therapy [1]
"CCCCCCCCCCCC(=O)OCC1O[C@H](O[C@@]2(CCl)O[C@H](CCl)C(O)C2O)C(O)C(O)[C@H]1Cl (stereo in doubt) [Compound 3, 1′,6′-Dichloro-1′,6′-dideoxy-β-D-fructofuranosyl-4-chloro-4-deoxy-6-O-monododecanoate-α-D-galactopyranoside]",6.9 × 10^5 CFU/mL,4,4.3 × 10^4 CFU/mL,5.2,1.41 × 10^4 CFU/mL,5.7,2.9 × 10^3 CFU/mL,6.3,has antimicrobial effect,1.53 × 10^6 CFU/mL,3.5,1.1 × 10^6 CFU/mL,3.7,1.21 × 10^6 CFU/mL,3.6,TNTC*,not,–,–
sucrose monolaurate,–,–,–,–,–,–,–,–,–,–,–,–,–,–,–,–,–,effective anti-microbial,effective
CCCCCCCCCCCCO[C@@H]1O[C@H](CO)[C@@H](O[C@H]2O[C@H](CO)[C@@H](O)[C@H](O)[C@H]2O)[C@H](O)[C@H]1O [dodecyl maltoside],–,–,–,–,–,–,–,–,–,–,–,–,–,–,–,–,–,–,effective

# — US20090318381A1, “Halogenated alkyl di-and trisaccharides, pharmaceutical formulations, diagnostic kits and methods of treatment” (priority 2006, published 2009)
